Columns and labels:
[1] = Liver microsomal stability, rat; assay type: in vitro ADME; details: male, Sprague Dawley, read-out: Liver Microsomal Stability T1/2, rat
Description: (§1) Microsomal Incubation: Experimental Procedure
(§2) Pooled human liver microsomes (pooled male and female), pooled rat liver microsomes (male Sprague Dawley rats) and pooled dog liver microsomes (male Beagle dog) are purchased from a reputable commercial supplier and stored at −80° C. prior to use.
(§3) The final incubation volume is 50 μL. A control incubation is included for each compound tested where 0.1 M phosphate buffer pH 7.4 is added instead of NADPH (minus NADPH). Two control compounds are included with each species. All incubations are performed singularly for each test compound.
(§4) The reactions are stopped by transferring 25 μL of incubate to 50 μL methanol at the appropriate time points. The termination plates are centrifuged at 2,500 rpm for 20 min at 4° C. to precipitate the protein. Following protein precipitation, the sample supernatants are combined in cassettes of up to 4 compounds, internal standard is added and samples analysed by LC-MS/MS. From a plot of ln peak area ratio (compound peak area/internal standard peak area) against time, the gradient of the line is determined. Subsequently, half-life and intrinsic clearance are calculated

RSV A2 (PRNT1) = assay: RSV plaque reduction assay, A2 (PRNT1), Vero cells; assay type: cell-based, respiratory syncytial virus; details: n = 4
Description: Plaque Reduction Assay: […] After an overnight incubation at 37° C. in a humidified 5% CO2 atmosphere, the monolayer of cells should be approximately 90% confluent. Antiviral compounds were titrated in pre-warmed Serum Free (SF) Optimem in a U-bottom 96 well plate. […] Media was then removed from cells and replaced with PBS (100 μl/well). RSV stock was thawed and diluted in SF Optimem media to 4000 PFU/mLl. An equal volume of virus was added to compounds on the titration plate. PBS was removed from cells which were then inoculated with the virus/compound solution (50 μL/well). Cells were incubated for 2 h in a 37° C.+5% CO2 humidified incubator to allow infection. […] Immunostaining Procedure: Media was removed from cells and the monolayer washed with PBS. Cells were fixed with ice cold 80% Acetone in PBS (100 μl/well) for 20 mins at −20° C. […] Blocking solution was removed and plates washed once with PBS-T. Primary antibody in blocking solution was added to plates (50 μl/well) and incubated for 1 h at 37° C. Plates were then washed 3 times with PBS-T. Secondary antibody in blocking solution was added to plates (50 μL/well) and incubated for 1 h at 37° C. in the dark. […] Plates were scanned on the Odyssey Imager (Li-Cor Biosciences) at a resolution of […], medium quality and level 5 intensity in the […]. Data Analysis: Images obtained were saved and plaque numbers counted with the aid of computer imaging software. EC50 values for compounds were derived from dose response curves [three variable log (inhibitor) vs response] obtained using Graphpad Prism software.

[2] = Liver microsomal stability, human; assay type: in vitro ADME; details: both sexes, pooled liver microsomes, pH 7.4, 3 μM compound, read-out: Liver Microsomal Stability T1/2, human
Description: as §1, §2
as §3, with “Microsomes (final protein concentration 0.5 mg/mL), 0.1 M phosphate buffer pH 7.4 and test compound (final substrate concentration 3 μM; final DMSO concentration 0.25%) are pre-incubated at 37° C. prior to the addition of NADPH (final concentration 1 mM) to initiate the reaction. The” for “The”
as §4, with “Compounds are incubated for 0, 5, 15, 30 and 45 min. The control (minus NADPH) is incubated for 45 min only. The reactions” for “The reactions”

[3] = Liver microsomal stability, dog; assay type: in vitro ADME; details: male, Beagle, pooled liver microsomes, pH 7.4, 3 μM compound, read-out: Liver Microsomal Stability T1/2, dog
Description: as §1, §2
as §3, with “Microsomes (final protein concentration 0.5 mg/mL), 0.1 M phosphate buffer pH 7.4 and test compound (final substrate concentration 3 μM; final DMSO concentration 0.25%) are pre-incubated at 37° C. prior to the addition of NADPH (final concentration 1 mM) to initiate the reaction. The” for “The”
as §4, with “Compounds are incubated for 0, 5, 15, 30 and 45 min. The control (minus NADPH) is incubated for 45 min only. The reactions” for “The reactions”

[4] = In vivo pharmacokinetics in rats (IV and PO); design: species or system male Sprague Dawley rats; details: male Sprague Dawley rats, 1 mg/kg (IV)
Description: The pharmacokinetics of compounds were studied in vivo in male Sprague Dawley rats at doses of 1 mg/kg (IV) and 10 mg/kg (PO).
Sprague Dawley rats were treated with experimental compounds via intravenous and oral administration. Three animals for each route of administration were used with serial blood sampling at ten time points post dosing of compound.
Animals were weighed and used if between 200-250 g. Serial blood samples were collected at 0.02, 0.08, 0.25, 0.50, 1, 2, 4, 6, 8 and 24 hours post dosing. […] Blood samples were delivered into an anticoagulant (sodium heparin) and centrifuged at 4° C. Plasma samples were subsequently stored frozen at less than −20° C. prior to analysis.
Following protein precipitation with acetonitrile, samples were analysed with tandem liquid chromatography/mass spectrometry using electrospray ionisation. A full matrix curve with internal standards was employed and PK parameters were calculated.
In a similar manner, oral administration was performed by gavage at doses of 5 or 10 mg/kg at a concentration of 5 mg/ml in 1% Methyl cellulose (Sigma M7140), 0.1% Tween 80 in water. Serial samples were taken as described above.
RV039 was administered at doses of 1 mg/kg (IV) and 5 mg/kg (PO).

[5] = human respiratory syncytial virus, Vero

half-life at 3 μM ([1]; pooled liver microsomes, pH 7.4, 3 μM compound) | IC50 (RSV A2 (PRNT1); [5]) | half-life at 3 μM [2] | half-life at 3 μM [3] | half-life at 3 μM ([1]; pH 7.4, rat liver microsomes, 3 μM compound) | Structure (SMILES) | IC50 (RSV A2 (PRNT1)) | Volume of distribution [4]
2.08 h | 2.3 nM | 3.82 h | 18.3 h |  | CC(C)CCn1c(CN2C(=O)C3(CC3)c3ccncc32)nc2cc(CN)ccc21 [Example 6, 1′-((5-(aminomethyl)-1-isopentyl-1H-benzo[d]imidazol-2-yl)methyl)spiro[cyclopropane-1,3′-pyrrolo[2,3-c]pyridin]-2′(1′H)-one] |  | 
 |  |  |  |  | NCc1ccc2c(c1)nc(CN1C(=O)C3(CC3)c3ccc(F)cc31)n2C1CCC(O)CC1 [Example 8, 1′-((5-(Aminomethyl)-1-((1R,4R)-4-hydroxycyclohexyl)-1H-benzo[d]imidazol-2-yl)methyl)-6′-fluorospiro[cyclopropane-1,3′-indolin]-2′-one] | 4.8 nM | 
 |  |  |  |  | CC(C)CCn1c(CN2C(=O)C3(CC3)c3cccnc32)nc2cc(CN)ccc21 [Example 5, 1′-((5-(aminomethyl)-1-isopentyl-1H-benzo[d]imidazol-2-yl)methyl)[spirocyclopropane-1,3′-pyrrolo[2,3-b]pyridin]-2′(1′H)-one] | 5.3 nM | Example 5: 8.2 L/kg
 | 1.6 nM | 0.557 h | 55.8 h | 4.1 h | NCc1ccc2c(c1)nc(CN1C(=O)C3(CC3)c3ccc(F)cc31)n2C1CCOCC1 [Example 7, 1′-((5-(aminomethyl)-1-(tetrahydro-2H-pyran-4-yl)-1H-benzo[d]imidazol-2-yl)methyl)-6′-fluorospiro[cyclopropane-1,3′-indolin]-2′-one] |  | 
